Results on four compounds are retold here after publication PMC5640878, “The GlyR Extracellular β8–β9 Loop – A Functional Determinant of Agonist Potency” (Frontiers in Molecular Neuroscience, 2017).

Where two headings read alike, the source gives them in different places.

Assay [1] has as its target T1, GlyRα1β WT (UniProt P48167+Q64018).
T1 construct: expressed in transfected cells; host or cells: HEK293
The assay is described as follows: whole-cell patch clamp recordings of transfected HEK293 cells. The class given is cell-based, murine. How it is done: (§1) Media were exchanged after 6–24 h.
(§2) All experiments were performed at room temperature.
On the technique in general: Patch clamp records ionic current or voltage across a cell membrane.

Assay [2] relates to GlyRα1^Q177β variants. As to conditions: saturating glycine (1 mM); HEK293, whole-cell. How it is done: as §1, §2
Assay [3] has as its system GlyRα1^Q177K. As to conditions: shaky mouse; ref Schaefer et al., 2017; cited from earlier work.
Assay [4] deals with GlyR R65 mutated to lysine. As to conditions: ref Grudzinska et al., 2005; cited from earlier work.
Assay [5] has as its system GlyR R65 mutated to alanine. As to conditions: ref Grudzinska et al., 2005; cited from earlier work.
Assay [6] addresses GlyRα1^Q177Aβ (UniProt P48167+Q64018, Q205A). The assay is described as follows: whole-cell patch clamp recordings of transfected HEK293 cells.
Protocol: (§3) HEK293 cells were transiently transfected using a modified calcium phosphate precipitation method. A mixture of plasmid DNA, CaCl2, 0.1x TE buffer and 2x HBS (50 mM HEPES, 12 mM glucose, 10 mM KCl, 280 mM NaCl, 1.5 mM Na2HPO4) was applied onto the cells. A GlyRα1 to GlyRβ ratio of 1:2 was used for co-expression. For GlyRα1:GlyRβ:GFP co-expression, a ratio of 1:2:1 was transfected. The same amount of DNA was used for GlyRα1 WT and mutants. Media were exchanged after 6–24 h. Immunocytochemical stainings and electrophysiological experiments were always done 24 h after transfection, biotinylation experiments were performed 48 h after transfection.
(§4) The patch clamp technique was used to measure current amplitudes (I) of transfected HEK293 cells. Currents were amplified using an EPC-9 amplifier and the software Patchmaster (HEKA, Lambrecht, Germany). Cells were patched 24 h after transfection in a whole-cell configuration mode. […] All agonist and antagonists were applied using an Octaflow II system (ALA Scientific Instruments, Farmingdale, NY, United States). The extracellular buffer consisted of (in mM): 137 NaCl, 5.4 KCl, 1.8 CaCl2, 1 MgCl2, 5 HEPES, pH adjusted to 7.4 with NaOH. The intracellular buffer contained (in mM): 120 CsCl, 20 N(Et)4Cl, 1 CaCl2, 2 MgCl2, 11 EGTA, 10 HEPES, pH adjusted to 7.2 with CsOH. Recording pipettes with an open resistance of 4–6 MΩ were manufactured from borosilicate capillaries using a P97 horizontal puller (Sutter Instrument, Novato, CA, United States). Cells were held at -60 mV and fast capacitances were in range of 11–13 pF. All experiments were performed at room temperature.
(§5) The following Hill equation was used: I = Imax ^∗ c^nHill/(c^nHill + EC50^nHill). I refers to the current amplitude at the given agonist concentration c, Imax is the current amplitude at a saturating agonist, EC50 refers to the agonist concentration evoking half-maximal current responses and nHill is the Hill coefficient.
Assay [7] deals with GlyRα1^Q177Cβ (UniProt P48167+Q64018, Q205C). Described as above.
Protocol: as §3, §4, §5
Assay [8] addresses GlyRα1^Q177Dβ (UniProt P48167+Q64018, Q205D). Described as above.
Protocol: as §3, §4, §5
Assay [9] concerns the target GlyRα1^Q177Eβ (UniProt P48167+Q64018, Q205E). Described as above.
Protocol: as §3, §4, §5
Assay [10] concerns the target GlyRα1^Q177Gβ (UniProt P48167+Q64018, Q205G). The assay is described as above.
Protocol: as §3, §4, §5
In assay [11] the target is GlyRα1^Q177Kβ (UniProt P48167+Q64018, Q205K). The assay is described as above.
Protocol: as §3, §4, §5
Assay [12] has as its target GlyRα1^Q177Nβ (UniProt P48167+Q64018, Q205N). The description is as above.
Protocol: as §3, §4, §5
Assay [13] concerns the target GlyRα1^Q177Rβ (UniProt P48167+Q64018, Q205R). Described as above.
Protocol: as §3, §4, §5
The target of assay [14] is GlyRα1^Q177Wβ (UniProt P48167+Q64018, Q205W). The description is as above.
Protocol: as §3, §4, §5
Setting [15] is: 100 μM glycine, HEK293, co-expressed with GlyRβ, whole-cell.
Setting [16] is: Hill coefficient of glycine concentration-response curve.
Setting [17] is: read-out: EC50 glycine, HEK293, α1:β 1:2, whole-cell currents, 1–3000 μM glycine.
The mark [18] stands for this setting: 100 μM taurine, HEK293, whole-cell.
[19] abbreviates: Hill coefficient of taurine concentration-response curve.
The mark [20] stands for this setting: 10 mM taurine, HEK293, whole-cell, mutant probably not completely saturated.
Where [21] appears, read: 100 μM β-alanine, HEK293, whole-cell.
Where [22] appears, read: Hill coefficient of β-alanine concentration-response curve.
Setting [23] is: saturating 10 mM β-alanine, HEK293, whole-cell.

By EC50 is commonly meant the concentration that produces a half-maximal response. On to `NCC(=O)O` [glycine], for which the “Mean Igly 100 μM ± SEM” value in assay [1] (setting [15]) turned out to be 3.8 ± 0.3 nA; in assay [6] (setting [15]) it was 0.8 ± 0.3 nA; in assay [7] (setting [15]), 1.8 ± 0.3 nA; in assay [8] (setting [15]), 0.9 ± 0.3 nA; in assay [9] (setting [15]), 1.6 ± 0.2 nA; in assay [10] (setting [15]), 0.3 ± 0.08 nA. Moreover, the “Mean Igly 100 μM ± SEM” value in assay [11] (setting [15]) is listed as 0.6 ± 0.07^∗∗∗ nA; in assay [12] (setting [15]), 1.2 ± 0.2 nA; in [13] (setting [15]), 0.8 ± 0.07 nA; in [14] (setting [15]), 1.8 ± 0.3 nA. Besides, the nH glycine is recorded as 1.9 in assay [1] (setting [16]); 2.0 in assay [6] (setting [16]); 2.1 in assay [7] (setting [16]); 3.4 in assay [8] (setting [16]); 2.6 in [9] (setting [16]); 2.5 in assay [10] (setting [16]). Further, the nH glycine is reported as 2.2 in assay [11] (setting [16]), 3.0 in assay [12] (setting [16]), 2.0 in assay [13] (setting [16]) and 3.7 in assay [14] (setting [16]). Besides, the EC50 in [1] (setting [17]) is 58 ± 4 µM; in assay [6] (setting [17]), 208 ± 22 µM; in assay [8] (setting [17]), 137 ± 4 µM; in assay [10] (setting [17]), 262 ± 13 µM; in assay [11] (setting [17]) it was 312 ± 7 µM; in assay [13] (setting [17]) it was 231 ± 4 µM. Moreover, in [14] (setting [17]), the EC50 was 130 ± 12 µM. Besides, in [2], the “Imax values in comparison to GlyRα1β WT” value is recorded as “No significant differences”. The “binding to the mutated receptor compared to GlyRα1 WT” value in assay [3] is given as “bound with the same efficiency”. In addition, the “decrease in glycine EC50” value in [4] was 200 fold; in [5] it was 1250 fold. Moreover, the “increase in glycine EC50 compared to GlyRα1β WT” value in assay [6] was 3.6 fold; in assay [7], 1.5 fold; in assay [8], 2.3 fold; in assay [9], 1.8 fold; in assay [10] it was 4.5 fold; in assay [11], 5.3 fold. The “increase in glycine EC50 compared to GlyRα1β WT” value in assay [12] is given as 1.6 fold; in [13], 4 fold; in assay [14] it was 2.2 fold.

For the compound `O=C1C[C@@H]2OCC=C3CN4CC[C@]56c7ccccc7N1[C@H]5[C@H]2[C@H]3C[C@H]46` [strychnine], in [3], the “binding to the mutated receptor compared to GlyRα1 WT” value is given as “bound with the same efficiency”.

Consider `NCCS(=O)(=O)O` [taurine], for which the results for the “agonist-induced inward current at 100 μM taurine” value in [1] (setting [18]), in [12] (setting [18]) and in assay [13] (setting [18]) were 0.13 ± 0.06 nA, 0.02 ± 0.001 nA and 0 ± 0 nA, respectively. The “absolute current amplitude at 10 mM taurine (efficacy)” value in assay [1] (10 mM taurine, HEK293, whole-cell) came to 5.7 ± 0.4 nA; in assay [12] (setting [20]) it was 2.7 ± 0.5 nA; in assay [13] (setting [20]), 3.1 ± 0.4 nA. Moreover, in assay [1] (HEK293, co-expressed with GlyRβ, whole-cell, 3–10000 μM taurine, read-out: EC50 taurine), the EC50 amounted to 593 ± 18 µM. For the same compound, the nH taurine is given as 2.3 in [1] (setting [19]), 1.6 in assay [12] (setting [19]) and 1.5 in [13] (setting [19]). Also, the “increase of the EC50 for taurine compared to GlyRα1β WT” value in [12] (human, hek293 cells) is listed as 2.1 fold; in assay [13] (human, hek293 cells), 5 fold.

Regarding `NCCC(=O)O` [β-alanine], the “agonist-induced inward current at 100 μM β-alanine” value in [1] (setting [21]) worked out at 1.3 ± 0.3 nA; in [12] (setting [21]) it was 0.87 ± 0.4 nA; in assay [13] (setting [21]) it was 0.2 ± 0.07 nA. The concentration giving a half-maximal response (EC50) in assay [1] (HEK293, co-expressed with GlyRβ, whole-cell, 3–10000 μM β-alanine, read-out: EC50 β-alanine) came out at 157 ± 7 µM; in [12], 203 ± 17 µM; in assay [13] it was 359 ± 19 µM. Further, the “nH β-alanine” value in [1] (setting [22]) was determined as 2.6; in assay [12] (setting [22]), 1.7; in [13] (setting [22]) it was 1.9. Besides, the “absolute current amplitude at 10 mM β-alanine” value in [1] (setting [23]) came out at 5.3 ± 2 nA; in [12] (setting [23]) it was 4.1 ± 0.8 nA; in assay [13] (setting [23]), 4.5 ± 0.9 nA.
